Experiments:
DHX33 protein = molecular target: T1, DHX33 protein (Mus musculus, UniProt Q80VY9); assay: Inhibition of the helicase activity of DHX33 protein in vitro; type: biochemical; conditions: recombinant DHX33 protein, compound 1-1000 nM, 37° C., 60 minutes; read-out: IC50 (inhibitory effects of the compounds on the helicase activity of DHX33 protein)
T1 construct: purified full-length DHX33 protein; made in house; host or cells: E. coli BL-21pLysS (DE3)
T1 sequence (Q80VY9 1-698): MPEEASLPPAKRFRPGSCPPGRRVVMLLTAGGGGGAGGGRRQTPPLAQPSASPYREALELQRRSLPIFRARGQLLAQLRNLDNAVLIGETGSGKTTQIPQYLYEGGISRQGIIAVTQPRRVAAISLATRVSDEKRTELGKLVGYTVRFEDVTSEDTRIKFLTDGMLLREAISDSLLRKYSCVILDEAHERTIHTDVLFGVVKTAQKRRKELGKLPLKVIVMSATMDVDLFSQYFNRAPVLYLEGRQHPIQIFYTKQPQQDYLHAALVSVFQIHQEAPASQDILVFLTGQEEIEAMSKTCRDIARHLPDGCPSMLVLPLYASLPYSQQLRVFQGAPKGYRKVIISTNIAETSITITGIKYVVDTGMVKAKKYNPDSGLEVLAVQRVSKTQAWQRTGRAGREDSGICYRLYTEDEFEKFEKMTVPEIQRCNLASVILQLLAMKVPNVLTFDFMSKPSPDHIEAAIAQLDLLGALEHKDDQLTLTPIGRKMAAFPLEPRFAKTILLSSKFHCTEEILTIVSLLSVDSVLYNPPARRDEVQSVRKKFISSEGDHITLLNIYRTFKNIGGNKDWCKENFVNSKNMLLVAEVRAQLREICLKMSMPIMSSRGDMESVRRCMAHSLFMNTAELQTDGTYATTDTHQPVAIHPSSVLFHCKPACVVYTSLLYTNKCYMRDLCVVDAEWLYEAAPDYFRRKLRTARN
Method: Biochemistry. 2019:58 (4):250-8. RNA helicase gene (mouse DHX33 gene) was cloned into a pET32M-3C vector (between BamH I/Not I restriction sites). Afterward, the plasmid was transformed into BL-21pLysS (DE3) E. coli. 0.5 mM isopropyl 1-thio-βp-D-galactopyranoside (IPTG) was added, and the expression of the recombinant protein was induced at 16° C. for 16 hours. Cells were allowed to precipitate and were resuspended in a cell lysis buffer [50 mM Tris-HCl (pH7.2), 150 mM NaCl, 1% Triton X-100, and 50 mM imidazole supplemented with a protease inhibitor]. Thereafter, cells were subjected to ultrasonic treatment and centrifuged at a rotation speed of 13000 rpm for 25 minutes. The supernatant was incubated with the nickel-nitrilotriacetic acid beads equilibrated in Tris buffer, followed by sufficient washing. Thereafter, the purified protein was eluted with a solution of 300 mM imidazole in Tris buffer, and was then subjected to dialysis against an imidazole-free Tris buffer at 4° C. overnight.
The components involved in the reaction for testing the helicase activity were added to a 96-well opaque white plate. The method was outlined as follows. The 96-well plate was coated with neutravidin at a final concentration of 10 μg/mL (100 μl/well) overnight at 4° C. Afterwards, the neutravidin-coated plate was blocked with 100 μL of 0.1% (w/v) BSA (dissolved in normal PBS) at 22° C. for 2 hours. After washing, a DNA duplex (2.5 ng) that was resulted from the annealing of two single-stranded DNA oligonucleotides (the sequence of one single strand was biotin-labeled 5′-[…]-3′; and the sequence of the other single strand was DIG-labeled 5′-[…]-3′) [the annealing reaction was carried out in PBS (pH 7.0) containing 1M NaCl] was added, and the resulting mixture was incubated at 22° C. for 4 hours. After the addition of 90 μL of the reaction mixture, the helicase reaction was initiated [0.25 pig of purified full-length DHX33 protein, dissolved in 25 mM 4-MOPS (pH 7.0), 5 mM ATP 2 mM DTT, 3 mM MnCl2 and 100 μg/mL BSA]. The reaction was conducted at 37° C. for 60 minutes. After being washed, each well was incubated with a blocking solution [10% (w/v) BSA in 0.1 M maleic acid and 0.15 M NaCl (pH 7.5)] for 30 minutes, and was then incubated with 20 μL of antibody solution (anti-DIG-AP, Roche, in blocking buffer) for 30 minutes. After being washed with 100 μL of detection buffer [0.1 M Tris-HCl and 0.1 M NaCl (pH 9.5)], each well was added with 1 μL of chemiluminescent substrate (CSPD-0.25 mM), and the plate was incubated at 17° C. for 5 minutes. Afterwards, the plate was patted dry and incubated at 37° C. for 30 minutes. The remaining DIG-AP marker control in each well was counted for 10 minutes by a luminescence multi-well plate reader (Enspire, PerkinElmer). Higher reading indicated weaker helicase activity.
Positive control and negative controls were set for this acticity assay. Among them, one negative control group, which differed from the experimental group only in that the former was not added with ATP (other conditions were the same as the experimental group), was used for the comparison with the experimental group; another negative control group, which differed from the experimental group only in that the former was not added with DHX33 protein (other conditions were the same as the experimental group), was used for the comparison with the experimental group. The positive control group was set for the comparison with the wild-type DHX33 protein (standard substance).
Biochemistry. 2019:58 (4):250-8.
Compounds having a series of concentration (the concentrations were set at 1 nM, 5 nM, 10 nM, 20 nM, 50 nM, 100 nM, 250 nM, 500 nM, and 1000 nM) were used to conduct the helicase activity assay of […] protein in vitro. The half-maximal inhibitory concentrations of the compounds of the present disclosure on the helicase activity of […] protein were as shown in Table 1.

U251-MG cells = assay: Half-maximal cell-inhibitory concentration on U251-MG cells (CCK-8); type: cell-based; conditions: Homo sapiens, U-251, U251-MG cells (DHX33-overexpressing cancer cell strain), 48 hours, read-out: IC50 (half-maximal inhibitory concentrations of compounds on U251-MG cells)
Summary of the method: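 […]-overexpressing glioma cells seeded at 1×10^4 cells/well, exposed to compound from 5 nM to 20 μM for 48 hours at 37° C, 5% CO2. Viability read by CCK-8 after 2 hours (OD 450 nm); IC50 from inhibition curves, three repeats.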

IC50 (DHX33 protein) | IC50 (U251-MG cells) | Compound
< 20 nM | < 100 nM | COc1cc2nc(/C(C#N)=C/c3cc(C)n(-c4sc(C)cc4C#N)c3C)[nH]c2cn1 [AB24288, (E)-2-(3-(2-cyano-2-(6-methoxy-3H-imidazo[4,5-c]pyridin-2-yl)vinyl)-2,5-dimethyl-1H-pyrrol-1-yl)-5-methylthiophene-3-carbonitrile]
< 20 nM | < 100 nM | COc1ccc2cc(NC(=O)c3cc(C)n(-c4sc(C)nc4C#N)c3C)[nH]c2c1 [AB29501]
20 to 100 nM | 100 to 1000 nM | COc1ccc2nc(NC(=O)c3cc(C)n(-c4sc(C)cc4C(N)=O)c3C)[nH]c2c1 [AB24387, 1-(3-carbamoyl-5-methylthiophen-2-yl)-N-(6-methoxy-1H-benzo[d]imidazol-2-yl)-2,5-dimethyl-1H-pyrrole-3-carboxamide]
< 20 nM | < 100 nM | COc1cc2nc(/C(C#N)=C/c3cc(C)n([C@@H](C)c4ccccc4)c3C)[nH]c2cn1 [AB29506, (S,E)-3-(2,5-dimethyl-1-(1-phenylethyl)-1H-pyrrol-3-yl)-2-(6-methoxy-3H-imidazo[4,5-c]pyridin-2-yl)acrylonitrile]
100 to 400 nM | 5000 to 20000 nM | Cc1oc(-n2c(C)cc(/C=C(\C#N)c3nc4ccncc4[nH]3)c2C)c(C#N)c1C [AB24249]
100 to 400 nM | 1000 to 5000 nM | Cc1sc(-n2c(C)cc(/C=C(\C#N)c3nc4ccccc4[nH]3)c2C)c(C#N)c1C [AB24264, (E)-2-(3-(2-(1-(1-H-benzo[d]imidazol-2-yl]-2-cyanovinyl])-2,5-dimethyl-1H-pyrrol-1-yl)-4,5-dimethylthiophene-3-carbonitrile]
100 to 400 nM | 1000 to 5000 nM | COc1cc2nc(/C(C#N)=C/c3cc(C)n(-c4sc(-c5ccccn5)cc4C#N)c3C)[nH]c2cn1 [AB24336, (E)-2-(3-(2-cyano-2-(6-methoxy-3H-imidazo[4,5-c]pyridin-2-yl)vinyl)-2,5-dimethyl-1H-pyrrol-1-yl)-5-(pyridin-2-yl)thiophene-3-carbonitrile]
20 to 100 nM | 100 to 1000 nM | COc1cc2nc(/C(C#N)=C/c3cc(C)n(-c4sc(C)nc4C(N)=O)c3C)[nH]c2cn1 [AB24351, (E)-5-(3-(2-cyano-2-(6-methoxy-3H-imidazo[4,5-c]pyridin-2-yl)vinyl)-2,5-dimethyl-1H-pyrrol-1-yl)-2-methylthiazole-4-carboxamide]
100 to 400 nM | 1000 to 5000 nM | Cc1cc(/C=C(\C#N)c2nc3ccccc3[nH]2)c(C)n1-c1oc(-c2ccccc2)cc1C#N [AB24283, (E)-2-(3-(2-(1H-benzo[d]imidazol-2-yl)-2-cyanovinyl)-2,5-dimethyl-1H-pyrrol-1-yl)-5-phenylfuran-3-carbonitrile]

Reference: patent US20230146233A1, “A CLASS OF POLYCYCLIC COMPOUNDS INHIBITING RNA HELICASE DHX33 AND THE APPLICATION THEREOF” (Shenzhen KeYe Life Technologies, Co., Ltd, priority 2020, published 2023)
